The subject of this test is MV-4-11 cells. The test can be described thus: Gene expression microarray analysis (Affymetrix PrimeView) and GSEA. In kind it is cell-based, human. On the set-up: RFU PODN (11730768_x_at) / Fold change /veh PODN (11730768_x_at) / RFU LINC00158 (11744669_a_at) / Fold change /veh LINC00158 (11744669_a_at) / RFU DUSP10 (11751237_a_at) / Fold change /veh DUSP10 (11751237_a_at) / RFU ID3 (11757404_x_at) / Fold change /veh ID3 (11757404_x_at) / RFU PLEKHG5 (11737974_s_at) / Fold change /veh PLEKHG5 (11737974_s_at) / RFU LRRC4B (11730491_at) / Fold change /veh LRRC4B (11730491_at) / RFU GIMAP4 (11747438_a_at) / Fold change /veh GIMAP4 (11747438_a_at) / RFU KRT8 (11758183_x_at) / Fold change /veh KRT8 (11758183_x_at) / RFU CNN1 (11734310_a_at) / Fold change /veh CNN1 (11734310_a_at) / RFU VPS37D (11726825_at) / Fold change /veh VPS37D (11726825_at) / RFU C10orf10 (11716522_x_at) / Fold change /veh C10orf10 (11716522_x_at) / RFU KIR2DL2 /// KIR2DL4 /// KIR2DL5A /// KIR2DL5B /// KIR2DS1 /// KIR2DS2 /// KIR2DS3 /// KIR2DS4 /// KIR3DL3 /// KIR3DL3 /// KIR3DS1 (11738374_at) / Fold change /veh KIR2DL2 /// KIR2DL4 /// KIR2DL5A /// KIR2DL5B /// KIR2DS1 /// KIR2DS2 /// KIR2DS3 /// KIR2DS4 /// KIR3DL3 /// KIR3DL3 /// KIR3DS1 (11738374_at) / RFU C1QL1 (11718748_at) / Fold change /veh C1QL1 (11718748_at) / RFU TMPRSS4 (11747572_a_at) / Fold change /veh TMPRSS4 (11747572_a_at) / RFU HAMP (11756126_x_at) / Fold change /veh HAMP (11756126_x_at) / RFU RNFT2 (11725882_a_at) / Fold change /veh RNFT2 (11725882_a_at) / RFU NR4A2 (11747474_a_at) / Fold change /veh NR4A2 (11747474_a_at) / RFU ABCC12 (11746883_a_at) / Fold change /veh ABCC12 (11746883_a_at) / RFU TMEM136 (11760407_x_at) / Fold change /veh TMEM136 (11760407_x_at) / RFU CLDN22 /// WWC2 (11732394_at) / Fold change /veh CLDN22 /// WWC2 (11732394_at) / RFU HLA-DPB1 (11760878_x_at) / Fold change /veh HLA-DPB1 (11760878_x_at) / RFU SPINT1 (11716480_a_at) / Fold change /veh SPINT1 (11716480_a_at) / RFU GAP43 (11754022_s_at) / Fold change /veh GAP43 (11754022_s_at) / RFU A4GNT (11735810_at) / Fold change /veh A4GNT (11735810_at) / RFU PRB3 (11715151_x_at) / Fold change /veh PRB3 (11715151_x_at) / RFU TUBB4B (11761932_at) / Fold change /veh TUBB4B (11761932_at) / RFU CAPN14 (11732068_a_at) / Fold change /veh CAPN14 (11732068_a_at) / RFU TMCC2 (11721928_a_at) / Fold change /veh TMCC2 (11721928_a_at) / RFU IRGQ (11745062_a_at) / Fold change /veh IRGQ (11745062_a_at) / RFU FAM174B (11720279_a_at) / Fold change /veh FAM174B (11720279_a_at) / RFU TMPRSS4 (11748680_a_at) / Fold change /veh TMPRSS4 (11748680_a_at) / RFU FAM212B (11763350_a_at) / Fold change /veh FAM212B (11763350_a_at) / RFU PLEKHG5 (11743358_a_at) / Fold change /veh PLEKHG5 (11743358_a_at) / RFU ZSCAN30 (11745921_a_at) / Fold change /veh ZSCAN30 (11745921_a_at) / RFU CMKLR1 (11741424_a_at) / Fold change /veh CMKLR1 (11741424_a_at) / RFU LOC101060620 /// MAPK8IP1 (11723275_at) / Fold change /veh LOC101060620 /// MAPK8IP1 (11723275_at) / RFU SPTSSB (11747773_x_at) / Fold change /veh SPTSSB (11747773_x_at) / RFU PRSS12 (11739890_at) / Fold change /veh PRSS12 (11739890_at) / RFU BIN1 (11741810_x_at) / Fold change /veh BIN1 (11741810_x_at) / RFU WNT11 (11732464_a_at) / Fold change /veh WNT11 (11732464_a_at) / RFU C10orf10 (11716521_a_at) / Fold change /veh C10orf10 (11716521_a_at) / RFU C5orf56 (11738089_at) / Fold change /veh C5orf56 (11738089_at) / RFU CYB561 (11721691_x_at) / Fold change /veh CYB561 (11721691_x_at) / RFU ANKRD19P (11752326_a_at) / Fold change /veh ANKRD19P (11752326_a_at) / RFU OR2T12 /// OR2T33 /// OR2T8 (11738714_s_at) / Fold change /veh OR2T12 /// OR2T33 /// OR2T8 (11738714_s_at) / RFU VCAN (11748164_a_at) / Fold change /veh VCAN (11748164_a_at) / RFU JSRP1 (11732532_at) / Fold change /veh JSRP1 (11732532_at) / RFU KRTAP10-11 (11738290_x_at) / Fold change /veh KRTAP10-11 (11738290_x_at) / RFU MYO3A (11730013_a_at) / Fold change /veh MYO3A (11730013_a_at) / RFU EBF3 (11725865_a_at) / Fold change /veh EBF3 (11725865_a_at) / RFU CAMK2N1 (11719241_x_at) / Fold change /veh CAMK2N1 (11719241_x_at) / RFU C5orf56 (11738088_a_at) / Fold change /veh C5orf56 (11738088_a_at) / RFU OLFML3 (11715873_a_at) / Fold change /veh OLFML3 (11715873_a_at) / RFU LOC100653217 /// NTM (11731650_a_at) / Fold change /veh LOC100653217 /// NTM (11731650_a_at) / RFU MAPK11 (11762145_a_at) / Fold change /veh MAPK11 (11762145_a_at) / RFU FIZ1 (11724087_x_at) / Fold change /veh FIZ1 (11724087_x_at) / RFU OASL (11726364_x_at) / Fold change /veh OASL (11726364_x_at) / RFU SOX15 (11748057_x_at) / Fold change /veh SOX15 (11748057_x_at) / RFU CD79A (11719716_a_at) / Fold change /veh CD79A (11719716_a_at) / RFU HIST1H1D (11736915_at) / Fold change /veh HIST1H1D (11736915_at) / RFU CASKIN2 (11723855_a_at) / Fold change /veh CASKIN2 (11723855_a_at) / RFU LOC730098 (11760151_x_at) / Fold change /veh LOC730098 (11760151_x_at) / RFU OR4N2 (11742367_at) / Fold change /veh OR4N2 (11742367_at) / RFU PRRT2 (11749266_a_at) / Fold change /veh PRRT2 (11749266_a_at) / RFU SNX32 (11753110_a_at) / Fold change /veh SNX32 (11753110_a_at) / RFU CDHR5 (11726645_a_at) / Fold change /veh CDHR5 (11726645_a_at) / RFU RCAN1 (11760418_a_at) / Fold change /veh RCAN1 (11760418_a_at) / RFU FAM167A (11723789_a_at) / Fold change /veh FAM167A (11723789_a_at) / RFU FAM26E (11764081_at) / Fold change /veh FAM26E (11764081_at) / RFU ISYNA1 (11749810_s_at) / Fold change /veh ISYNA1 (11749810_s_at) / RFU ACY1 (11761880_at) / Fold change /veh ACY1 (11761880_at) / RFU 11764098_at / Fold change /veh 11764098_at / RFU SAMD14 (11745864_x_at) / Fold change /veh SAMD14 (11745864_x_at) / RFU NPB (11741838_a_at) / Fold change /veh NPB (11741838_a_at) / RFU TMPRSS6 (11731388_a_at) / Fold change /veh TMPRSS6 (11731388_a_at) / RFU KRTAP10-2 (11738614_at) / Fold change /veh KRTAP10-2 (11738614_at) / RFU ARHGAP8 /// PRR5-ARHGAP8 (11727945_x_at) / Fold change /veh ARHGAP8 /// PRR5-ARHGAP8 (11727945_x_at) / RFU KRTAP5-7 /// NADSYN1 (11734609_at) / Fold change /veh KRTAP5-7 /// NADSYN1 (11734609_at) / RFU RASL12 (11751679_a_at) / Fold change /veh RASL12 (11751679_a_at) / RFU CDKN2B (11736163_a_at) / Fold change /veh CDKN2B (11736163_a_at) / RFU PRF1 (11729649_at) / Fold change /veh PRF1 (11729649_at) / RFU, ZNF638 /// ZNF638-IT1 / Fold change vs veh, ZNF638 /// ZNF638-IT1 / RFU, PANK3 / Fold change vs veh, PANK3 / RFU, SH3YL1 / Fold change vs veh, SH3YL1 / RFU, ZEB2 / Fold change vs veh, ZEB2 / RFU, NRIP1 / Fold change vs veh, NRIP1 / RFU, PTTG1IP / Fold change vs veh, PTTG1IP / RFU, CAPN2 / Fold change vs veh, CAPN2 / RFU, MED14 / Fold change vs veh, MED14 / RFU, SNORA58 / Fold change vs veh, SNORA58 / RFU, C1orf63 / Fold change vs veh, C1orf63 / RFU, LRRFIP1 / Fold change vs veh, LRRFIP1 / RFU, NDUFAF7 / Fold change vs veh, NDUFAF7 / RFU, SLC12A2 / Fold change vs veh, SLC12A2 / RFU, IBTK / Fold change vs veh, IBTK / RFU, ESF1 / Fold change vs veh, ESF1 / Fold change vs veh, TMEM50B / RFU, TAOK1 / Fold change vs veh, TAOK1 / RFU, ACBD3 / Fold change vs veh, ACBD3 / RFU, TMA16 / Fold change vs veh, TMA16 / RFU, RWDD3 / Fold change vs veh, RWDD3 / RFU, BCAT1 / Fold change vs veh, BCAT1 / RFU, EDEM3 / Fold change vs veh, EDEM3 / RFU, TMEM33 / Fold change vs veh, TMEM33 / RFU, WDR75 / Fold change vs veh, WDR75 / RFU, AHCTF1 / Fold change vs veh, AHCTF1 / RFU, TFRC / Fold change vs veh, TFRC / RFU, ZDHHC17 / Fold change vs veh, ZDHHC17 / RFU, NOM1 / Fold change vs veh, NOM1 / RFU, ARL8B / Fold change vs veh, ARL8B / RFU, ZBTB11 / Fold change vs veh, ZBTB11 / RFU, TAMM41 / Fold change vs veh, TAMM41 / RFU, KIAA1704 /// LOC100996395 / Fold change vs veh, KIAA1704 /// LOC100996395 / RFU, ING1 / Fold change vs veh, ING1 / RFU, TRMT61B / Fold change vs veh, TRMT61B / RFU, FUBP3 / Fold change vs veh, FUBP3 / RFU, TP53 / Fold change vs veh, TP53 / RFU, TNKS2 / Fold change vs veh, TNKS2 / RFU, ZFP14 / Fold change vs veh, ZFP14 / RFU, ACTR2 / Fold change vs veh, ACTR2 / RFU, PPP3R1 / Fold change vs veh, PPP3R1 / RFU, PIK3R1 / Fold change vs veh, PIK3R1 / RFU, HNRNPA1 / Fold change vs veh, HNRNPA1 / RFU, RNF170 / Fold change vs veh, RNF170 / RFU, ZNF28 / Fold change vs veh, ZNF28 / RFU, RNGTT / Fold change vs veh, RNGTT / RFU, OGT / Fold change vs veh, OGT / RFU, BRD1 / Fold change vs veh, BRD1 / RFU, MARS / Fold change vs veh, MARS / RFU, ZNF655 / Fold change vs veh, ZNF655 / RFU, FAHD1 / Fold change vs veh, FAHD1 / RFU, BDP1 / Fold change vs veh, BDP1 / RFU, LRRCC1 / Fold change vs veh, LRRCC1 / RFU, ARID1A / Fold change vs veh, ARID1A / RFU, ZNF146 / Fold change vs veh, ZNF146 / RFU, ZNF330 / Fold change vs veh, ZNF330 / RFU, GPN3 / Fold change vs veh, GPN3 / RFU, C9orf123 / Fold change vs veh, C9orf123 / RFU, N4BP2L2 / Fold change vs veh, N4BP2L2 / RFU, ARFIP1 / Fold change vs veh, ARFIP1 / RFU, FAM179B / Fold change vs veh, FAM179B / RFU, BCL10 / Fold change vs veh, BCL10 / RFU, UHRF1BP1L / Fold change vs veh, UHRF1BP1L / RFU, BET1 / Fold change vs veh, BET1 / RFU, CNOT2 / Fold change vs veh, CNOT2 / RFU, ZNF268 / Fold change vs veh, ZNF268 / Fold change vs veh, ZNF507 / RFU, DGCR2 / Fold change vs veh, DGCR2 / RFU, WDSUB1 / Fold change vs veh, WDSUB1 / Fold change vs veh, HSP90B1 /// MIR3652 / RFU, ADSS / Fold change vs veh, ADSS / RFU, GK / Fold change vs veh, GK / RFU, ZNF148 / Fold change vs veh, ZNF148 / RFU, TAF9 / Fold change vs veh, TAF9 / RFU, SLC1A5 / Fold change vs veh, SLC1A5 / RFU, SLMO2 / Fold change vs veh, SLMO2 / RFU, ABCC4 / Fold change vs veh, ABCC4 / RFU, LOC101060439 /// RAP1B / Fold change vs veh, LOC101060439 /// RAP1B / RFU, RFX7 / Fold change vs veh, RFX7 / RFU, GTPBP10 / Fold change vs veh, GTPBP10 / RFU, CNEP1R1 / Fold change vs veh, CNEP1R1 / RFU, BIVM-ERCC5 /// ERCC5 / Fold change vs veh, BIVM-ERCC5 /// ERCC5 / RFU, ILF3 / Fold change vs veh, ILF3 / RFU 11762660_at / Fold change /veh 11762660_at / RFU VCAN (11757783_s_at) / Fold change /veh VCAN (11757783_s_at) / RFU DDX43 (11728927_at) / Fold change /veh DDX43 (11728927_at) / RFU KRT8 (11758188_x_at) / Fold change /veh KRT8 (11758188_x_at) / RFU NKD1 (11759106_at) / Fold change /veh NKD1 (11759106_at) / RFU SRD5A1 (11742802_a_at) / Fold change /veh SRD5A1 (11742802_a_at) / RFU TPSAB1 /// TPSB2 (11721975_s_at) / Fold change /veh TPSAB1 /// TPSB2 (11721975_s_at) / RFU GSTM3 (11746129_a_at) / Fold change /veh GSTM3 (11746129_a_at) / RFU IL23R (11737362_x_at) / Fold change /veh IL23R (11737362_x_at) / RFU TMEM51 (11727254_a_at) / Fold change /veh TMEM51 (11727254_a_at) / RFU PIWIL2 (11732686_x_at) / Fold change /veh PIWIL2 (11732686_x_at) / RFU ORM1 (11744905_x_at) / Fold change /veh ORM1 (11744905_x_at) / RFU CCDC152 (11743942_at) / Fold change /veh CCDC152 (11743942_at) / RFU ECM1 (11717891_a_at) / Fold change /veh ECM1 (11717891_a_at) / RFU IL23R (11748794_a_at) / Fold change /veh IL23R (11748794_a_at) / RFU TNFAIP8L3 (11732012_x_at) / Fold change /veh TNFAIP8L3 (11732012_x_at) / RFU MBOAT4 (11741988_at) / Fold change /veh MBOAT4 (11741988_at) / RFU 11764193_at / Fold change /veh 11764193_at / RFU TMEM53 (11763286_at) / Fold change /veh TMEM53 (11763286_at) / RFU MAGEB2 (11727129_at) / Fold change /veh MAGEB2 (11727129_at) / RFU TMEM200A (11744735_a_at) / Fold change /veh TMEM200A (11744735_a_at) / RFU CCDC152 (11751479_a_at) / Fold change /veh CCDC152 (11751479_a_at) / RFU FAM211A (11726209_a_at) / Fold change /veh FAM211A (11726209_a_at) / RFU RGS16 (11746705_a_at) / Fold change /veh RGS16 (11746705_a_at) / RFU VCAN (11755009_s_at) / Fold change /veh VCAN (11755009_s_at) / RFU RHOB (11743442_s_at) / Fold change /veh RHOB (11743442_s_at) / RFU RGS16 (11720943_a_at) / Fold change /veh RGS16 (11720943_a_at) / RFU RGS16 (11720944_at) / Fold change /veh RGS16 (11720944_at) / RFU, VPS4B / Fold change vs veh, VPS4B / RFU, CREB1 / Fold change vs veh, CREB1 / RFU, DNAJC13 / Fold change vs veh, DNAJC13 / RFU, GNAQ / Fold change vs veh, GNAQ / RFU, CDK5R1 / Fold change vs veh, CDK5R1 / RFU, ZRANB3 / Fold change vs veh, ZRANB3 / RFU, CUL4A / Fold change vs veh, CUL4A / RFU, CCNY / Fold change vs veh, CCNY / RFU, UFL1 / Fold change vs veh, UFL1 / RFU, COG3 / Fold change vs veh, COG3 / RFU, DIAPH2 / Fold change vs veh, DIAPH2 / RFU, SKA2 / Fold change vs veh, SKA2 / RFU, AFF3 / Fold change vs veh, AFF3 / RFU, LMF1 / Fold change vs veh, LMF1 / RFU, IPO11 / Fold change vs veh, IPO11 / RFU, DFFB / Fold change vs veh, DFFB / RFU, FOXP1 / Fold change vs veh, FOXP1 / RFU, CARD8 / Fold change vs veh, CARD8 / RFU, STRN3 / Fold change vs veh, STRN3 / RFU, ADK / Fold change vs veh, ADK / RFU, RASSF2 / Fold change vs veh, RASSF2 / RFU, WIPF1 / Fold change vs veh, WIPF1 / RFU, LARP1B / Fold change vs veh, LARP1B / RFU, RASA1 / Fold change vs veh, RASA1 / RFU, RB1 / Fold change vs veh, RB1 / RFU, PPFIA1 / Fold change vs veh, PPFIA1 / RFU, MAT2A / Fold change vs veh, MAT2A / RFU, CCT5 / Fold change vs veh, CCT5 / RFU, WDR92 / Fold change vs veh, WDR92 / RFU, CUX1 / Fold change vs veh, CUX1 / RFU, TTC7A / Fold change vs veh, TTC7A / RFU, TMEM135 / Fold change vs veh, TMEM135 / RFU, DEPTOR / Fold change vs veh, DEPTOR / RFU, CPM / Fold change vs veh, CPM / RFU, DNAJB6 / Fold change vs veh, DNAJB6 / RFU, CACNA2D3 / Fold change vs veh, CACNA2D3 / RFU, DTX4 / Fold change vs veh, DTX4 / RFU, TFCP2 / Fold change vs veh, TFCP2 / RFU, GMCL1 /// GMCL1P1 / Fold change vs veh, GMCL1 /// GMCL1P1 / RFU, AEBP2 / Fold change vs veh, AEBP2 / RFU, SNHG1 /// SNORD22 /// SNORD25 /// SNORD26 /// SNORD27 /// SNORD28 /// SNORD29 /// SNORD31 / Fold change vs veh, SNHG1 /// SNORD22 /// SNORD25 /// SNORD26 /// SNORD27 /// SNORD28 /// SNORD29 /// SNORD31 / Fold change (Aza/veh), C12orf56 (ProbeSet 11735607_a_at) / Fold change (ACY-1035/veh), C12orf56 (ProbeSet 11735607_a_at) / Fold change (Aza/veh), FGFR1OP (ProbeSet 11751329_s_at) / Fold change (ACY-1035/veh), FGFR1OP (ProbeSet 11751329_s_at) / Fold change (Aza/veh), VPS36 (ProbeSet 11739960_a_at) / Fold change (ACY-1035/veh), VPS36 (ProbeSet 11739960_a_at) / RFU SYPL1 (11715823_x_at) / Fold change /veh SYPL1 (11715823_x_at) / RFU IGFBP7 (11715501_s_at) / Fold change /veh IGFBP7 (11715501_s_at) / RFU REEP3 (11722064_at) / Fold change /veh REEP3 (11722064_at) / RFU IGLL1 (11728026_x_at) / Fold change /veh IGLL1 (11728026_x_at): dose or concentration left out as unconfirmed. To be noted: MV-4-11 cells, 48 hours.

In the case of `Nc1ncn([C@@H]2O[C@H](CO)[C@@H](O)[C@H]2O)c(=O)n1` [azacitidine], the “RFU KRT8 (11758188_x_at)” value is on record as 23.78 RFU.
